pEC50: −log10 of the molar value.
biological target: T1, IDO1 (Homo sapiens, UniProt P14902); experiment: Cell-based (HeLa) assay for measurement of IDO1 inhibition (kynurenine levels in supernatant after IFNγ induction); conditions: HeLa cells, IFNγ-induced IDO1, kynurenine in supernatant after 48 hour incubation; geometric mean of a minimum of four determinations
T1 construct: HeLa cells were treated with a test compound in the presence of IFNγ, which induces IDO1 expression; host or cells: H1-HeLa cells, IDO1 induced with IFNγ
T1 sequence (P14902 whole entry): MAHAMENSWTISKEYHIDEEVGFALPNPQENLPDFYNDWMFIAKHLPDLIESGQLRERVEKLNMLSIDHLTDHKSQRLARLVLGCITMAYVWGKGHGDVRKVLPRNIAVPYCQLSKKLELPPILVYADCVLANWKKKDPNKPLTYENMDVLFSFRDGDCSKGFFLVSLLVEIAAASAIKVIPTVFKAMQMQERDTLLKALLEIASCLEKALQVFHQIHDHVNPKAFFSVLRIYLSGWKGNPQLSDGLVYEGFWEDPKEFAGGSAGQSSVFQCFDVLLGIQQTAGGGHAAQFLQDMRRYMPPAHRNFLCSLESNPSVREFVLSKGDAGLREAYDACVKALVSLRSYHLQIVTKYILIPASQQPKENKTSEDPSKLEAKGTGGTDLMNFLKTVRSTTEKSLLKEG
How it was run: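 HeLa cells, 1,250 per well, treated with compound (0.5% DMSO final) plus IFNγ to induce IDO1, for 48 h. Supernatant kynurenine measured by TCA hydrolysis at 60 °C, then p-dimethylaminobenzaldehyde, absorbance 480 nm. EC50 from a four-parameter fit normalized to −/+IFNγ controls; geometric mean of at least four runs.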

pEC50 | Structure (SMILES)
6.32 | O/N=C(\Nc1cccc(Br)c1)c1ccnc2nc(CCN3CCCCC3)[nH]c12 [Example 272, N-(3-bromophenyl)-N′-hydroxy-2-(2-(piperidin-1-yl)ethyl)-1H-imidazo[4,5-b]pyridine-7-carboximidamide]
5.66 | O/N=C(\Nc1ccc(F)c(Cl)c1)c1ccnc2nc(NC3CCOC3)[nH]c12 (stereo not drawn) [Example 227, N-(3-chloro-4-fluorophenyl)-N′-hydroxy-2-((tetrahydrofuran-3-yl)amino)-1H-imidazo[4,5-b]pyridine-7-carboximidamide]
6.25 | CC(C)NCc1nc2c(/C(=N/O)Nc3ccc(F)c(Cl)c3)cc(F)c(F)c2[nH]1 [Example 51, N-(3-Chloro-4-fluorophenyl)-6,7-difluoro-N′-hydroxy-2-((isopropylamino)methyl)-1H-benzo[d]imidazole-4-carboximidamide]
6.26 | O/N=C(\Nc1cccc(C(F)F)c1)c1ccnc2nc[nH]c12 [Example 98, N-(3-(difluoromethyl)phenyl)-N′-hydroxy-1H-imidazo[4,5-b]pyridine-7-carboximidamide]
5.66 | CCNCCc1nc2nccc(/C(=N/O)Nc3ccc(F)c(Cl)c3)c2[nH]1 [Example 204, N-(3-chloro-4-fluorophenyl)-2-(2-(ethylamino)ethyl)-N′-hydroxy-3H-imidazo[4,5-b]pyridine-7-carboximidamide]
5.70 | CNCCNc1nc2nccc(/C(=N/O)Nc3ccc(F)c(Cl)c3)c2[nH]1 [Example 216, N-(3-chloro-4-fluorophenyl)-N′-hydroxy-2-((2-(methylamino)ethyl)amino)-1H-imidazo[4,5-b]pyridine-7-carboximidamide]
6.23 | CC(C)N(C)CCNc1nc2nccc(/C(=N/O)Nc3ccc(F)c(Cl)c3)c2[nH]1 [Example 240, N-(3-chloro-4-fluorophenyl)-N′-hydroxy-2-((2-(isopropyl(methyl)amino)ethyl)amino)-1H-imidazo[4,5-b]pyridine-7-carboximidamide]
6.19 | O/N=C(\Nc1ccc(Cl)c(Cl)c1)c1ccnc2nc[nH]c12 [Example 86, N-(3,4-Dichlorophenyl)-N′-hydroxy-1H-imidazo[4,5-b]pyridine-7-carboximidamide]
6.35 | O/N=C(\Nc1ccc(F)c(Cl)c1)c1ccnc2nc(NCCN3CCCC(F)C3)[nH]c12 (stereo not drawn) [Example 237, N-(3-chloro-4-fluorophenyl)-2-((2-(3-fluoropiperidin-1-yl)ethyl)amino)-N′-hydroxy-1H-imidazo[4,5-b]pyridine-7-carboximidamide]
5.96 | CNCCc1nc2c(/C(=N/O)Nc3ccc(F)c(Cl)c3)cc(F)c(F)c2[nH]1 [Example 57, N-(3-Chloro-4-fluorophenyl)-6,7-difluoro-N′-hydroxy-2-(2-(methylamino)ethyl)-1H-benzo[d]imidazole-4-carboximidamide]
5.79 | NC1(CCNc2nc3nccc(/C(=N/O)Nc4ccc(F)c(Cl)c4)c3[nH]2)CC1 [Example 242, 2-((2-(1-aminocyclopropyl)ethyl)amino)-N-(3-chloro-4-fluorophenyl)-N′-hydroxy-1H-imidazo[4,5-b]pyridine-7-carboximidamide]
6.62 | O/N=C(\Nc1ccc(F)c(Cl)c1)c1cc(F)c(F)c2nc(NCCN3CCCC3)[nH]c12 [Example 41, N-(3-Chloro-4-fluorophenyl)-4,5-difluoro-N′-hydroxy-2-((2-(pyrrolidin-1-yl)ethyl)amino)-1H-benzo[d]imidazole-7-carboximidamide]
5.74 | O/N=C(\Nc1ccc(F)c(C2CC2)c1)c1ccnc2nc[nH]c12 [Example 65, N-(3-Cyclopropyl-4-fluorophenyl)-N′-hydroxy-1H-imidazo[4,5-b]pyridine-7-carboximidamide]
5.72 | Cc1nc2nccc(/C(=N/O)Nc3ccc(F)c(Cl)c3)c2[nH]1 [Example 107, N-(3-Chloro-4-fluorophenyl)-N′-hydroxy-2-methyl-1H-imidazo[4,5-b]pyridine-7-carboximidamide]
6.41 | O/N=C(\Nc1cc(Cl)c(F)cc1F)c1ccnc2nc[nH]c12 [Example 62, N-(5-Chloro-2,4-difluorophenyl)-N′-hydroxy-1H-imidazo[4,5-b]pyridine-7-carboximidamide]
5.86 | O/N=C(\Nc1ccc(F)c(Cl)c1)c1ccnc2nc(C3CC3)[nH]c12 [Example 109, N-(3-Chloro-4-fluorophenyl)-2-cyclopropyl-N′-hydroxy-1H-imidazo[4,5-b]pyridine-7-carboximidamide]
5.41 | CC(O)c1nc2nccc(/C(=N/O)Nc3ccc(F)c(Cl)c3)c2[nH]1 (stereo not drawn) [Example 172, N-(3-Chloro-4-fluorophenyl)-N′-hydroxy-2-(1-hydroxyethyl)-1H-imidazo[4,5-b]pyridine-7-carboximidamide]
5.85 | O=S(=O)(NCc1nc2nccc(/C(=N/O)Nc3ccc(F)c(Cl)c3)c2[nH]1)c1ccccc1 [Example 180, N-(3-Chloro-4-fluorophenyl)-N′-hydroxy-2-(phenylsulfonamidomethyl)-1H-imidazo[4,5-b]pyridine-7-carboximidamide]
5.68 | CN1CCCCC1CNc1nc2nccc(/C(=N/O)Nc3ccc(F)c(Cl)c3)c2[nH]1 (stereo not drawn) [Example 202, N-(3-Chloro-4-fluorophenyl)-N′-hydroxy-2-[(1-methylpiperidin-2-yl)methylamino]-1H-imidazo[4,5-b]pyridine-7-carboximidamide]
6.28 | CN(C)Cc1nc2c(/C(=N/O)Nc3ccc(F)c(Cl)c3)cc(F)c(F)c2[nH]1 [Example 52, N-(3-Chloro-4-fluorophenyl)-2-((dimethylamino)methyl)-6,7-difluoro-N′-hydroxy-4H-benzo[d]imidazole-4-carboximidamide]
5.35 | CN(C)CCCc1nc2c(F)c(F)cc(/C(=N/O)Nc3ccc(F)c(Cl)c3)c2[nH]1 [Example 199, N-(3-Chloro-4-fluorophenyl)-2-[3-(dimethylamino)propyl]-6,7-difluoro-N′-hydroxy-3H-benzimidazole-4-carboximidamide]
5.49 | O/N=C(\Nc1ccc(F)c(C#CC2CC2)c1)c1ccnc2nc[nH]c12 [Example 79, N-(3-(Cyclopropylethynyl)-4-fluorophenyl)-N′-hydroxy-1H-imidazo[4,5-b]pyridine-7-carboximidamide]

same assay, conditions: HeLa cells, IFNγ-induced IDO1, kynurenine in supernatant, 48 hour incubation; geometric mean of a minimum of four determinations

pEC50 | Structure (SMILES)
6.38 | O/N=C(\Nc1cccc(Cl)c1)c1cc(F)c(F)c2nc(NCCN3CCCC3)[nH]c12 [Example 330, N-(3-chlorophenyl)-4,5-difluoro-N′-hydroxy-2-((2-(pyrrolidin-1-yl)ethyl)amino)-1H-benzo[d]imidazole-7-carboximidamide]
5.07 | ON=C(Nc1ccc(F)c(Cl)c1)c1cc(F)c(F)c2nc(Cl)[nH]c12 [Example 346, 2-chloro-N-(3-chloro-4-fluorophenyl)-4,5-difluoro-N′-hydroxy-1H-benzo[d]imidazole-7-carboximidamide]
6.36 | CN(C)CCNc1nc2cc(F)cc(/C(=N/O)Nc3ccc(F)c(Cl)c3)c2[nH]1 [Example 379, N-(3-chloro-4-fluorophenyl)-2-((2-(dimethylamino)ethyl)amino)-5-fluoro-N′-hydroxy-1H-benzo[d]imidazole-7-carboximidamide]
5.80 | CN(C)C1(CNc2nc3c(F)c(F)cc(/C(=N/O)Nc4ccc(F)c(Cl)c4)c3[nH]2)CCCCC1 [Example 450, N-(3-chloro-4-fluorophenyl)-2-(((1-(dimethylamino)cyclohexyl)methyl)amino)-4,5-difluoro-N′-hydroxy-1H-benzo[d]imidazole-7-carboximidamide]
5.83 | O/N=C(\Nc1ccc(F)c(Cl)c1)c1cc(F)c(F)c2nc(N[C@@H]3CCCNC3)[nH]c12 [Example 446, (R)—N-(3-chloro-4-fluorophenyl)-4,5-difluoro-N′-hydroxy-2-(piperidin-3-ylamino)-1H-benzo[d]imidazole-7-carboximidamide]
6.02 | CN1[C@@H]2CCC(Nc3nc4c(F)c(F)cc(/C(=N/O)Nc5ccc(F)c(Cl)c5)c4[nH]3)[C@H]1CC2 (stereo partly drawn) [Example 469, N-(3-chloro-4-fluorophenyl)-4,5-difluoro-N′-hydroxy-2-(((1R,5R)-8-methyl-8-azabicyclo[3.2.1]octan-2-yl)amino)-1H-benzo[d]imidazole-7-carboximidamide]
5.39 | CC(CN(C)C)c1nc2nccc(/C(=N/O)Nc3ccc(F)c(Cl)c3)c2[nH]1 (stereo not drawn) [Example 326, N-(3-chloro-4-fluorophenyl)-2-(1-(dimethylamino)propan-2-yl)-N′-hydroxy-1H-imidazo[4,5-b]pyridine-7-carboximidamide]
6.73 | CC(C)N(CCNc1nc2nccc(/C(=N/O)Nc3ccc(F)c(Cl)c3)c2[nH]1)C1CC1 [Example 406, N-(3-chloro-4-fluorophenyl)-2-((2-(cyclopropyl(isopropyl)amino)ethyl)amino)-N′-hydroxy-1H-imidazo[4,5-b]pyridine-7-carboximidamide]
6.68 | COc1c(F)cc(/C(=N/O)Nc2ccc(F)c(Cl)c2)c2[nH]cnc12 [Example 307, N-(3-chloro-4-fluorophenyl)-5-fluoro-N′-hydroxy-4-methoxy-1H-benzo[d]imidazole-7-carboximidamide]
6.56 | COC1CN(CCNc2nc3c(F)c(F)cc(/C(=N/O)Nc4ccc(F)c(Cl)c4)c3[nH]2)C1 [Example 456, N-(3-chloro-4-fluorophenyl)-4,5-difluoro-N′-hydroxy-2-((2-(3-methoxyazetidin-1-yl)ethyl)amino)-1H-benzo[d]imidazole-7-carboximidamide]
5.12 | CNC(C)Cc1nc2nccc(/C(=N/O)Nc3ccc(F)c(Cl)c3)c2[nH]1 (stereo not drawn) [Example 327, N-(3-chloro-4-fluorophenyl)-N′-hydroxy-2-(2-(methylamino)propyl)-1H-imidazo[4,5-b]pyridine-7-carboximidamide]
